{
  "source": "patent US9808511B2",
  "about": "“Method for treating alopecia with B-type natriuretic peptide” (IGISU Co., Ltd., priority 2011, dated 2017)",
  "key": {"[1]": {"test_system": "alopecia", "assay": "Conclusions from case test results (all types of alopecia)", "assay_type": "in vivo, human", "conditions": "external application; for Adverse events resulting from application: all cases", "experimental": "(§1) The test subjects were patients with alopecia areata, androgenetic alopecia, postpartum alopecia, female pattern alopecia, alopecia pityroides, and senile alopecia. Diagnosis and treatment of these test subjects were carried out by the present inventors as physicians.\n(§2) In general, in order to confirm the effect of an external medicine in an individual case, a method involving separate left and right applications is desirable. The separate left and right application method is a method in which, for example, an external medicine containing an active ingredient to be tested is applied to the left-hand side of an affected site, and an external medicine not containing the active ingredient is applied to the right-hand side, thus enabling a therapeutic effect to be confirmed. With regard to the test of the preparation of the present invention, a preparatory test was carried out in accordance with the separate left and right applications method. However, taking into consideration medical ethics, the preparatory test in accordance with the separate left and right applications method was minimized, and when a preparatory test was not carried out, a therapeutic effect was evaluated by comparison between that before application and that after application.\n(§3) In order to carry out evaluation objectively, photographs before and after application of the NP preparation were recorded in all cases. Photographs of some of these cases are shown in the drawings."}, "[2]": {"test_system": "thin head hair", "conditions": "applied twice a day after hair washing; cited from earlier work"}, "[3]": {"test_system": "female pattern alopecia", "assay": "Case tests: application to thinning hair sites of female pattern alopecia patients", "assay_type": "in vivo, human", "conditions": "previous treatment", "experimental": "as §1\nas §2, with “application. […]” for “application.”\n(§4) In order to carry out evaluation objectively, photographs before and after application of the NP preparation were recorded in all cases. […]"}, "[4]": {"test_system": "cancer chemotherapy drug-induced alopecia", "assay": "Case tests: application to hair loss sites of cancer chemotherapy drug-induced alopecia patients", "assay_type": "in vivo, human"}, "[5]": {"test_system": "seborrheic alopecia", "assay": "Case tests: application to hair loss sites of seborrheic alopecia patients", "assay_type": "in vivo, human", "conditions": "previous treatment"}, "[6]": {"test_system": "alopecia pityroides", "assay": "Case tests: application to hair loss sites of alopecia pityroides patients", "assay_type": "in vivo, human", "conditions": "previous treatment", "experimental": "as §1, §2\nPrior to administration of the ANP gel, BNP gel, CNP gel, BNP ointment, and CNP ointment of the present invention, as is routine for dermatological diagnosis and treatment, the test subjects were interviewed regarding age, gender, history of disease, and family history of disease; when an allergic predisposition was suspected, a scratch test against the main allergens and an evaluation thereof were carried out. In dermatological diagnosis and treatment, since there are a relatively large number of patients who have strong immunoreactivity toward a specific allergen, or a disease such as atopic dermatitis that is suspected to be related to having an allergic predisposition, in order to assist diagnosis, an interview with respect to family history and previous history of allergic disease in addition to gender and age, and a scratch test toward the main allergens, are widely carried out as simple supplemental test methods.\nTable 1 to Table 23 show the results of interviews with the test subjects and the results of the scratch test together with evaluation of the diagnostic findings and symptoms of the test subjects carried out in [Example 1] above.\nas §3"}, "[7]": {"test_system": "postpartum alopecia", "assay": "Case tests: application to hair loss sites of postpartum alopecia patients", "assay_type": "in vivo, human", "conditions": "case C18", "experimental": "as §1\nas §2, with “application. […]” for “application.”\nas §4"}, "[8]": {"test_system": "alopecia areata", "assay": "Case tests: application to bald areas of alopecia areata patients", "assay_type": "in vivo, human", "conditions": "previous treatment of the test subject (history); one value per case", "experimental": "as §1\n(§5) Clinical classification of alopecia was carried out in accordance with the Classification of the Japanese Dermatological Association, and evaluation of the severity of alopecia areata was carried out in accordance with the above-mentioned ‘USA Alopecia Areata Evaluation Guidelines’, the area of hair loss being classified using 6 grades of S0 to S5 and the hair loss site being classified using 3 grades of B0 to B2.\nIn general, in order to confirm the effect of an external medicine in an individual case, a method involving separate left and right applications is desirable. […] However, taking into consideration medical ethics, the preparatory test in accordance with the separate left and right applications method was minimized, and when a preparatory test was not carried out, a therapeutic effect was evaluated by comparison between that before application and that after application. […]\nas §4"}, "[9]": {"test_system": "androgenetic alopecia", "assay": "Case tests: application to hair loss sites of androgenetic alopecia patients", "assay_type": "in vivo, human", "experimental": "as §1, §5\nIn general, in order to confirm the effect of an external medicine in an individual case, a method involving separate left and right applications is desirable. […] With regard to the test of the preparation of the present invention, a preparatory test was carried out in accordance with the separate left and right applications method. However, taking into consideration medical ethics, the preparatory test in accordance with the separate left and right applications method was minimized, and when a preparatory test was not carried out, a therapeutic effect was evaluated by comparison between that before application and that after application.\nPrior to administration of the ANP gel, BNP gel, CNP gel, BNP ointment, and CNP ointment of the present invention, as is routine for dermatological diagnosis and treatment, the test subjects were interviewed regarding age, gender, history of disease, and family history of disease; when an allergic predisposition was suspected, a scratch test against the main allergens and an evaluation thereof were carried out.\nas §3"}, "[10]": {"test_system": "androgenetic alopecia", "conditions": "androgenetic alopecia in males; cited from earlier work"}, "[11]": {"conditions": "case C35, previous treatment (interview)"}, "[12]": {"conditions": "previous treatment of the test subject (history), one value per case"}},
  "note": "Bridges are numbered along the chain shown (N, C = ends). Where no end group is shown, it is not given here.",
  "data": [
    {"compound": "human ANP(1-28) (SLRRSSCFGGRMDRIGAQSGLGCNSFRY; disulfide 7-23; listed as Homo sapiens)", "values": [
      {"measurement": "Therapeutic effect, conclusions from case test results", "setting": "[1]; agent containing the peptide as an active ingredient", "value": "effective only for alopecia in which there was no erythema, scale, seborrheic desquamation, etc. on the scalp"},
      {"measurement": "Hair growth", "setting": "[2]", "value": "downy hair-like hair growth was observed on the frontal region with 1 week of ANP administration"}
    ]},
    {"compound": "COC(=O)CCC[N+](C)(C)C.[Cl-]", "note": "[carpronium chloride]", "values": [
      {"measurement": "Effect of carpronium chloride", "setting": "[3]; case C19", "value": "No effect"},
      {"measurement": "Effect of conventional preparation", "setting": "[3]; cases B20, C19", "value": "there had been no effect"},
      {"measurement": "Effect of carpronium chloride", "setting": "[4]; [11]", "value": "No effect"},
      {"measurement": "Effect of conventional preparation", "setting": "[4]; case C35, previous application for 6 months", "value": "There had been no effect"},
      {"measurement": "Effect of carpronium chloride", "setting": "[5]; case B21 (=A8, B8)", "value": "No effect"},
      {"measurement": "Effect of carpronium chloride", "setting": "[6]; case A13 (=A6, C3, C4)", "value": "No effect"},
      {"measurement": "Effect of carpronium chloride", "setting": "[6]; case C30", "value": "No effect"},
      {"measurement": "Effect of carpronium chloride", "setting": "[6]; case C33", "value": "No effect"},
      {"measurement": "Effect of carpronium chloride", "setting": "[7]; previous treatment", "value": "No effect"},
      {"measurement": "Effect of conventional preparation", "setting": "[7]; previous treatment for 5 months", "value": "thinning hair on the crown had not improved"},
      {"measurement": "Effect of carpronium chloride", "setting": "[8]", "value": "No effect"}
    ]},
    {"compound": "Nc1cc(N2CCCCC2)nc(N)[n+]1[O-]", "note": "[minoxidil]", "values": [
      {"measurement": "Effect of minoxidil", "setting": "[9]; case B9, previous treatment", "value": "No effect"},
      {"measurement": "Effect of minoxidil", "setting": "[9]; case C16, previous treatment", "value": "No effect"},
      {"measurement": "Effect of minoxidil", "setting": "[9]; [12]", "value": "No effect"},
      {"measurement": "Effect of minoxidil", "setting": "[5]; case A12 (=A9, B11)", "value": "No effect"},
      {"measurement": "Effect of minoxidil", "setting": "[5]; case B22 (=A9, B11)", "value": "No effect"},
      {"measurement": "Effect of minoxidil", "setting": "[6]; case B28", "value": "No effect"}
    ]},
    {"compound": "CC[C@H](C)[C@@H]1NC(=O)[C@H](CCCNC(=N)N)NC(=O)[C@H](CC(=O)O)NC(=O)[C@H](CC(C)C)NC(=O)[C@H](CCCCN)NC(=O)[C@H](CC(C)C)NC(=O)CNC(=O)[C@H](Cc2ccccc2)NC(=O)[C@@H](NC(=O)CNC(=O)[C@H](CCCCN)NC(=O)[C@H](CO)NC(=O)[C@H](CC(C)C)NC(=O)CN)CSSC[C@@H](C(=O)O)NC(=O)CNC(=O)[C@H](CC(C)C)NC(=O)CNC(=O)[C@H](CO)NC(=O)[C@H](CCSC)NC(=O)[C@H](CO)NC(=O)CNC1=O", "note": "[CNP, human CNP-22]", "values": [
      {"measurement": "Adverse events resulting from application", "setting": "[1]", "value": "did not exhibit any adverse events such as local symptoms of irritation, skin atrophy, or an itching sensation"}
    ]},
    {"compound": "COc1ccc2cc1Oc1ccc(cc1)C[C@H]1c3c(cc4c(c3Oc3cc5c(cc3OC)CCN(C)[C@@H]5C2)OCO4)CCN1C", "note": "[cepharanthin]", "values": [
      {"measurement": "Effect of cepharanthin", "setting": "[4]; [11]", "value": "No effect"},
      {"measurement": "Effect of cepharanthin", "setting": "[8]", "value": "there had been no therapeutic effect"}
    ]},
    {"compound": "CC[C@H](C)[C@@H]1NC(=O)[C@H](CCCNC(=N)N)NC(=O)[C@H](CC(=O)O)NC(=O)[C@H](CCSC)NC(=O)[C@H](CCCCN)NC(=O)[C@H](CCCNC(=N)N)NC(=O)CNC(=O)[C@H](Cc2ccccc2)NC(=O)[C@@H](NC(=O)CNC(=O)[C@H](CO)NC(=O)CNC(=O)[C@H](CCC(N)=O)NC(=O)[C@@H](NC(=O)[C@H](CCSC)NC(=O)[C@H](CCCCN)NC(=O)[C@@H]2CCCN2C(=O)[C@@H](N)CO)C(C)C)CSSC[C@@H](C(=O)N[C@@H](CCCCN)C(=O)N[C@H](C(=O)N[C@@H](CC(C)C)C(=O)N[C@@H](CCCN=C(N)N)C(=O)N[C@@H](CCCN=C(N)N)C(=O)N[C@@H](Cc2cnc[nH]2)C(=O)O)C(C)C)NC(=O)CNC(=O)[C@H](CC(C)C)NC(=O)CNC(=O)[C@H](CO)NC(=O)[C@H](CO)NC(=O)[C@H](CO)NC(=O)[C@H](CO)NC1=O", "note": "[BNP, human BNP-32]", "values": [
      {"measurement": "Adverse events resulting from application", "setting": "[1]", "value": "did not exhibit any adverse events such as local symptoms of irritation, skin atrophy, or an itching sensation"}
    ]},
    {"compound": "O=C(O)CCCC[C@@H]1SC[C@@H]2NC(=O)N[C@@H]21", "note": "[biotin]", "values": [
      {"measurement": "Effect of conventional preparation", "setting": "[9]; previous treatment, cases C39, C26, B29", "value": "there had been no effect"}
    ]},
    {"compound": "CC1(C)[C@@H](O)CC[C@]2(C)[C@H]3C(=O)C=C4[C@@H]5C[C@@](C)(C(=O)O)CC[C@]5(C)CC[C@@]4(C)[C@]3(C)CC[C@@H]12", "note": "[glycyrrhetinic acid]", "values": [
      {"measurement": "Effect of glycyrrhetinic acid", "setting": "[9]; [12]", "value": "there had been no effect"},
      {"measurement": "Effect of glycyrrhetinic acid", "setting": "[5]; case A12 (=A9, B11)", "value": "No effect"},
      {"measurement": "Effect of glycyrrhetinic acid", "setting": "[5]; case B22 (=A9, B11)", "value": "No effect"}
    ]},
    {"compound": "CC(C)(C)NC(=O)[C@H]1CC[C@H]2[C@@H]3CC[C@H]4NC(=O)C=C[C@]4(C)[C@H]3CC[C@]12C", "note": "[Finasteride, finasteride]", "values": [
      {"measurement": "Proportion of patients improved", "setting": "[10]", "value": "about ¼"}
    ]}
  ]
}
